# Assay results reported in BindingDB's records for doi:10.1124/mol.107.042622 (The Johns Hopkins University, 2008).
# pIC50, pKi: −log10 of the molar value.
# Molecular target: DNA-(apurinic or apyrimidinic site) endonuclease (Homo sapiens, UniProt P27695)
# Assay: High-Throughput Screening and IC50 Determinations
# Settings: pH 7.5; 22 °C
# Method: The screening assay was performed using 384-well microtiter plate first spotted with test compounds. Then Ape1 in reaction buffer was added to each well. The reaction was initiated through the addition of substrate. After incubation, the final fluorescence was measured using a FLUOstar Optima plate reader (BMG Labtech GmbH, Offenburg, Germany) at excitation and emission wavelengths of 485 and 520 nm, respectively. IC50 analyses were carried out on the best hits by first plating 10-fold dilutions of each inhibitor onto 384-well plates. Using the initial rate values, percentage activity was calculated for each sample relative to a negative (DMSO only) control. The data were fitted to a sigmoidal dose-response model using Prism software (GraphPad Software, San Diego, CA).
# Sequence of DNA-(apurinic or apyrimidinic site) endonuclease (P27695 whole entry): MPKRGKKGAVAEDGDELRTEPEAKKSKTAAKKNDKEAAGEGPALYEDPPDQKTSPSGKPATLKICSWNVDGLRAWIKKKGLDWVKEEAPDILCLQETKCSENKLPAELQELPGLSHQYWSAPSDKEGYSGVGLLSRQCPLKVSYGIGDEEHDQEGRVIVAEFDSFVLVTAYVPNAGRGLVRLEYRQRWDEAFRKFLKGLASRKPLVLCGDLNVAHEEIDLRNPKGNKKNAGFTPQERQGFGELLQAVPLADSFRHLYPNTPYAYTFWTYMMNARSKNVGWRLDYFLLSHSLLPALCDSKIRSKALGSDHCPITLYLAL
Compound,pIC50,pKi
O=C(O)c1cc[c]([Sb](=[O])([OH])[OH])cc1[N+](=O)[O-] [4-[dihydroxy(oxo)--stibanyl]-2-nitrobenzoic acid],8.40,7.72
O=C(O)/C=C/c1ccc[c]([Sb](=[O])([OH])[OH])c1 [(2E)-3-{3-[dihydroxy(oxo)--stibanyl]phenyl}prop-2-enoic acid],6.70,
O=C(Nc1cc[c]([Sb](=[O])([OH])[OH])cc1)c1ccccc1 [N-{4-[dihydroxy(oxo)--stibanyl]phenyl}benzamide],6.52,
CCOC(=O)CCCc1cc[c]([Sb](=[O])([OH])[OH])cc1 [ethyl 4-{4-[dihydroxy(oxo)--stibanyl]phenyl}butanoate],7.77,7.44
